Assay results taken from patent US11981661B2, “Heterocyclic compounds” (Hoffmann-La Roche Inc., priority 2020, dated 2024).

target: T1, MAGL (Homo sapiens, UniProt Q99685); test: 2-AG assay (MAGL inhibitory activity, hydrolysis of 2-arachidonoylglycerol followed by mass spectrometry); format: biochemical; conditions: 50 pM MAGL, 8 μM 2-arachidonoylglycerol, 15 min preincubation, 30 min incubation at RT, concentration range 12.5 μM to 0.8 pM
T1 sequence (Q99685 1-303): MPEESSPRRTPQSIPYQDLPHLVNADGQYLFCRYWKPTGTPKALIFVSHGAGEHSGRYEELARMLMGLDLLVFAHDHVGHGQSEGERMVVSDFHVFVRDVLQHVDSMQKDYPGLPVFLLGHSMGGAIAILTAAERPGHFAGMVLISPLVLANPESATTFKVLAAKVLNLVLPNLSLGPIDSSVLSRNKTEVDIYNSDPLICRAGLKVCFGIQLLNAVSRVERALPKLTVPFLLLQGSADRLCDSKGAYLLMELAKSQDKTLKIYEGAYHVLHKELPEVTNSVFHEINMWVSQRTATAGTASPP
Procedure: Compounds were profiled for MAGL inhibitory activity by determining the enzymatic activity by following the hydrolysis of the natural substrate 2-arachidonoylglycerol resulting in arachidonic acid, which can be followed by mass spectrometry. This assay is hereinafter abbreviated “2-AG assay”.
The 2-AG assay was carried out in 384 well assay plates (PP, Greiner Cat #784201) in a total volume of 20 μL. Compound dilutions were made in 100% DMSO (VWR Chemicals 23500.297) in a polypropylene plate in 3-fold dilution steps to give a final concentration range in the assay from 12.5 μM to 0.8 pM. 0.25 μL compound dilutions (100% DMSO) were added to 9 μL MAGL in assay buffer (50 mM TRIS (GIBCO, 15567-027), 1 mM EDTA (Fluka, 03690-100 mL), 0.01% (v/v) Tween. After shaking, the plate was incubated for 15 min at RT. To start the reaction, 10 μL 2-arachidonoylglycerol in assay buffer was added. The final concentrations in the assay was 50 pM MAGL and 8 μM 2-arachidonoylglyerol. After shaking and 30 min incubation at RT, the reaction was quenched by the addition of 40 μL of ACN containing 4 μM of d8-arachidonic acid. The amount of arachidonic acid was traced by an online SPE system (Agilent Rapidfire) coupled to a triple quadrupole mass spectrometer (Agilent 6460). A C18 SPE cartridge (G9205A) was used in an ACN/water liquid setup. The mass spectrometer was operated in negative electrospray mode following the mass transitions 303.1→259.1 for arachidonic acid and 311.1→267.0 for d8-arachidonic acid. The activity of the compounds was calculated based on the ratio of intensities [arachidonic acid/d8-arachidonic acid].

SMILES	IC50
O=C(CCc1cnn[nH]1)N1CC(c2ccc(C3(C(F)(F)F)CC3)cc2)C1 [Example 37, 3-(1H-1,2,3-Triazol-5-yl)-1-(3-(4-(1-(trifluoromethyl)cyclo-propyl)phenyl)azetidin-1-yl)propan-1-one]	339 nM
CC(C)(Oc1ccc(C2CN(C(=O)CCc3cnn[nH]3)C2)cc1)C(F)(F)F [Example 38, 3-(1H-1,2,3-Triazol-5-yl)-l-(3-(4-((1,1,1-trifluoro-2-methylpropan-2-yl)oxy)phenyl)azetidin-1-yl)propan-1-one]	234 nM
O=C(CCCc1cnn[nH]1)N1CC(OCc2ccc(C(F)(F)F)cc2F)C1 [Example 39, 1-[3-[[2-Fluoro-4-(trifluoromethyl)phenyl]methoxy]azetidin-1-yl]-4-(1H-triazol-5-yl)butan-1-one]	58 nM
O=C(CCCc1cnn[nH]1)N1CC(c2ccc(C3(C(F)(F)F)CC3)cc2)C1 [Example 40, 4-(1H-Triazol-5-yl)-1-[3-[4-[1-(trifluoro-methyl)cyclopropyl]phenyl]azetidin-1-yl]butan-1-one]	21 nM
CC(C)(Oc1ccc(C2CN(C(=O)CCCc3cnn[nH]3)C2)cc1)C(F)(F)F [Example 41, 4-(1H-Triazol-5-yl)-1-[3-[4-(2,2,2-trifluoro-1,1-dimethyl-ethoxy)phenyl]azetidin-1-yl]butan-1-one]	23 nM
O=C(CCCc1cnn[nH]1)N1CC(c2ccc(Oc3ccc(OC(F)(F)F)cc3)nc2)C1 [Example 42, 4-(1H-Triazol-5-yl)-1-[3-[6-[4-(trifluoro-methoxy)phenoxy]-3-pyridyl]azetidin-1-yl]butan-1-one]	218 nM
O=C(CCCc1cnn[nH]1)N1CC2(CC(Oc3cncc(C(F)(F)F)n3)C2)C1 [Example 43, 4-(1H-Triazol-5-yl)-1-[6-[6-(trifluoromethyl)pyrazin-2-yl]oxy-2-azaspiro[3.3]heptan-2-yl]butan-1-one]	6950 nM
O=C(CCCc1cnn[nH]1)N1CC(C#Cc2cccc(Cl)c2)C1 [Example 44, 1-[3-[2-(3-Chlorophenyl)ethynyl]azetidin-1-yl]-4-(1H-triazol-5-yl)butan-1-one]	61 nM
O=C(CCCc1cnn[nH]1)N1CC(c2ccc(N3CC(OCC(F)(F)F)C3)cc2)C1 [Example 46, 4-(1H-Triazol-5-yl)-1-[3-[4-[3-(2,2,2-trifluoroethoxy)azetidin-1-yl]phenyl]azetidin-1-yl]butan-1-one]	323 nM
O=C(CCc1ccn[nH]1)N1CC(OCc2ccc(C(F)(F)F)cc2F)C1 [Example 47, 1-[3-[[2-Fluoro-4-(trifluoromethyl)phenyl]methoxy]azetidin-1-yl]-3-(1H-pyrazol-5-yl)propan-1-one]	430 nM
O=C(CCc1cccc(=O)[nH]1)N1CC(OCc2ccc(C(F)(F)F)cc2F)C1 [Example 48, 6-[3-[3-[[2-Fluoro-4-(trifluoromethyl)phenyl]methoxy]azetidin-1-yl]-3-oxo-propyl]-1H-pyridin-2-one]	598 nM
O=C1CCCC(CCC(=O)N2CC(OCc3ccc(C(F)(F)F)cc3F)C2)N1 (stereo not shown) [Example 49, 6-[3-[3-[[2-Fluoro-4-(trifluoromethyl)phenyl]methoxy]azetidin-1-yl]-3-oxo-propyl]piperidin-2-one]	605 nM
O=C1CC[C@@H](COC(=O)N2CC(OCc3ccc(C(F)(F)F)cc3F)C2)N1 [Example 52, [(2S)-5-Oxopyrrolidin-2-yl]methyl 3-[[2-fluoro-4-(trifluoromethyl)phenyl]methoxy]azetidine-1-carboxylate]	167 nM
O=C1CC[C@H](COC(=O)N2CC(OCc3ccc(C(F)(F)F)cc3F)C2)N1 [Example 53, [(2R)-5-Oxopyrrolidin-2-yl]methyl 3-[[2-fluoro-4-(trifluoromethyl)phenyl]methoxy] azetidine-1-carboxylate]	907 nM
O=C1N[C@H](COC(=O)N2CC(OCc3ccc(C(F)(F)F)cc3F)C2)CO1 [Example 54, [(4S)-2-Oxooxazolidin-4-yl]methyl 3-[[2-fluoro-4-(trifluoromethyl)phenyl]methoxy] azetidine-1-carboxylate]	36 nM
O=C1N[C@@H](COC(=O)N2CC(OCc3ccc(C(F)(F)F)cc3F)C2)CO1 [Example 55, [(4R)-2-Oxooxazolidin-4-yl]methyl 3-[[2-fluoro-4-(trifluoromethyl)phenyl]methoxy] azetidine-1-carboxylate]	33 nM

SMILES	IC50
O=C1N[C@H](COC(=O)N2CC(c3ccc(C4(C(F)(F)F)CC4)cc3)C2)CO1 [Example 56, [(4S)-2-Oxooxazolidin-4-yl]methyl 3-[4-[1-(trifluoromethyl)cyclopropyl]phenyl] azetidine-1-carboxylate]	5 nM
O=C1N[C@H](COC(=O)N2CC3(CC(Cc4ccc(F)cc4F)C3)C2)CO1 [Example 57, [(4S)-2-Oxooxazolidin-4-yl]methyl 6-[(2,4-difluorophenyl)methyl]-2-azaspiro[3.3]heptane-2-carboxylate]	2 nM
O=C1N[C@H](COC(=O)N2CC(c3ccc(Oc4ccc(F)cc4)cc3)C2)CO1 [Example 58, [(4S)-2-Oxooxazolidin-4-yl]methyl 3-[4-(4-fluorophenoxy)phenyl]azetidine-1-carboxylate]	4 nM
O=C1N[C@@H](COC(=O)N2CC3(CC(Cc4ccc(F)cc4F)C3)C2)CO1 [Example 59, [(4R)-2-Oxooxazolidin-4-yl]methyl 6-[(2,4-difluorophenyl)methyl]-2-azaspiro[3.3]heptane-2-carboxylate]	2 nM
O=C1N[C@H](COC(=O)N2CC(c3ccc(Oc4ccccc4Cl)nc3)C2)CO1 [Example 60, [(4S)-2-Oxooxazolidin-4-yl]methyl 3-[6-(2-chlorophenoxy)-3-pyridyl]azetidine-1-carboxylate]	33 nM
O=C1N[C@H](COC(=O)N2CC(C#Cc3ccccc3C(F)F)C2)CO1 [Example 61, [(4S)-2-Oxooxazolidin-4-yl]methyl 3-[2-[2-(difluoromethyl)phenyl]ethynyl] azetidine-1-carboxylate]	13 nM
O=C1N[C@H](COC(=O)N2CC(c3ccc(N4CCC(C(F)(F)F)C4)nc3)C2)CO1 (stereo partly drawn) [Example 62, [(4S)-2-Oxooxazolidin-4-yl]methyl 3-[6-[3-(trifluoromethyl)pyrrolidin-1-yl]-3-pyridyl]azetidine-1-carboxylate]	26 nM
O=C(OCCc1cnn[nH]1)N1CC(OCc2ccc(C(F)(F)F)cc2F)C1 [Example 63, 2-(1H-Triazol-5-yl)ethyl 3-[[2-fluoro-4-(trifluoro-methyl)phenyl]methoxy]azetidine-1-carboxylate]	19 nM
O=C(NCCc1cnn[nH]1)N1CC(OCc2ccc(C(F)(F)F)cc2F)C1 [Example 64, 3-[[2-Fluoro-4-(trifluoromethyl)phenyl]methoxy]-N-[2-(1H-triazol-5-yl)ethyl]azetidine-1-carboxamide]	93 nM
CN(CCc1cnn[nH]1)C(=O)N1CC(c2ccc(C3(C(F)(F)F)CC3)cc2)C1 [Example 65, N-Methyl-N-[2-(1H-triazol-5-yl)ethyl]-3-[4-[1-(trifluoromethyl)cyclopropyl]phenyl] azetidine-1-carboxamide]	2 nM
CN(CCc1cnn[nH]1)C(=O)N1CC(OCc2ccc(C(F)(F)F)cc2F)C1 [Example 66, 3-[[2-Fluoro-4-(trifluoromethyl)phenyl]methoxy]-N-methyl-N-[2-(1H-triazol-5-yl)ethyl]azetidine-1-carboxamide]	13 nM
CN(CCc1cnn[nH]1)C(=O)N1CC(c2ccc(-c3ccc(S(C)(=O)=O)cc3Cl)cc2)C1 [Example 67, 3-[4-(2-Chloro-4-methylsulfonyl-phenyl)phenyl]-N-methyl-N-[2-(1H-triazol-5-yl)ethyl]azetidine-1-carboxamide]	27 nM
CC(CCc1cnn[nH]1)C(=O)N1CC(c2ccc(C3(C(F)(F)F)CC3)cc2)C1 (stereo not shown) [Example 68, 2-Methyl-4-(1H-triazol-5-yl)-1-[3-[4-[1-(trifluoromethyl)cyclopropyl]phenyl]azetidin-1-yl]butan-1-one]	59 nM
O=C(CC(O)Cc1cnn[nH]1)N1CC(c2ccc(C3(C(F)(F)F)CC3)cc2)C1 (stereo not shown) [Example 69, 3-Hydroxy-4-(1H-triazol-5-yl)-1-[3-[4-[1-(trifluoromethyl)cyclopropyl]phenyl]azetidin-1-yl]butan-1-one]	122 nM
O=C(C(F)CCc1cnn[nH]1)N1CC(c2ccc(C3(C(F)(F)F)CC3)cc2)C1 (stereo not shown) [Example 70, 2-Fluoro-4-(1H-triazol-5-yl)-1-[3-[4-[1-(trifluoromethyl)cyclopropyl]phenyl]azetidin-1-yl]butan-1-one]	62 nM
